The values below come from paper PMC10094648, “Short, Lipidated Dendrimeric γ-AApeptides as New Antimicrobial Peptidomimetics” (International Journal of Molecular Sciences, 2023).

One data set deals with MRSA (ATCC 33591). It counts as cell-based, methicillin-resistant Staphylococcus aureus. The conditions noted are these: ATCC 33591, 16 h. The protocol:
(§1) Chemical reagents and solvents were bought from Sigma Aldrich, Oakwood, TCI, and Chem-Impex. Final products were purified with Waters Breeze 2 HPLC and lyophilized using Labconco lyophilizer. HPLC traces of the final product were collected using 5–95% acetonitrile in water with 0.1% HPLC-grade TFA for at least 40 min. The nuclear magnetic resonance (NMR) data were collected using the Agilent 600 MHz NEO instrument. High-resolution mass spectra of compounds (Table S1) were collected using an Agilent Technologies 6540 UHD accurate-mass Q-TOF LC/MS spectrometer. Antibacterial assays and mechanism of action studies were performed using a Biotec multimode microplate reader synergy H4. Six different species of bacteria were used for bacteria assay tests, such as MRSA (ATCC 33591), MRSE (RP62A), VREF (ATCC 700802), E. coli (ATCC 25922), K. pneumoniae (ATCC 13383), and P. aeruginosa (ATCC 27853).
(§2) Concisely, E. coli, K. pneumoniae, P. aeruginosa, MRSA, MRSE, and VREF were cultivated in 37 °C TSB medium for 16 h. Subsequently, 4 ml of new TSB medium was added to 100 μL of cultivated bacterial solution and incubated for another 6 h to reach the mid-log phase. Next, 96-well plates were injected with 50 μL of bacterial solution that reached mid-log phase and 50 μL of compounds with different concentrations, which ranged from 0.75–25 μg/mL. Then, the 96-wells plates were incubated for another 16 h at 37 °C. After 16 h, MICs were determined by a multimode microplate reader.

In the next data set the test system is E. coli (ATCC 25922). It counts as cell-based. The settings on record: ATCC 25922, 16 h. The protocol:
as §1, §2

The subject of another data set is E.F. (VREF, ATCC 700802). The data set is classed as cell-based. The settings on record: ATCC 700802, 16 h. The protocol: as §1, §2
For data set [1], the system named is K. pneumoniae (ATCC 13383). The data set is classed as cell-based. The settings on record: ATCC 13383, 16 h. The protocol: as §1, §2
Another data set deals with MRSE (RP62A). It counts as cell-based. The settings on record: 16 h. The protocol:
as §1, §2

For data set [2], the system named is P. aeruginosa (ATCC 27853). The data set is classed as cell-based. The settings on record: ATCC 27853, 16 h. The protocol: as §1, §2
Data set [3] deals with E. coli. Put plainly: Membrane depolarization study (diSC35 dye). The data set is classed as cell-based. An excerpt: (§3) To probe the mechanism of antibacterial activity, we first carried out a membrane depolarization study with the membrane potential-sensitive dye 3,3′-dipropylthiadicarbocyanine iodide (diSC35) (Figure 2A,B). […] However, if the membrane is disrupted, and the fluorophore is released from the membrane, fluorescence will improve dramatically.

In data set [4] the test system is MRSA. Put plainly: Membrane depolarization study (diSC35 dye). It counts as cell-based, methicillin-resistant Staphylococcus aureus.
Text: as §3

In data set [5] the test system is E. coli. Put plainly: Outer membrane (OM) permeabilization (NPN uptake). It counts as cell-based. The settings on record: 1 × MIC, compared with 1% Triton. An excerpt: Next, using E. coli as a microorganism, we evaluated the OM permeabilization of YW-1. In aqueous conditions, 1-N-Phenylnaphthylamine (NPN) is blocked by the cell wall. However, if the OM is permeabilized, and NPN is taken up as a result, the fluorescence intensity will increase, compared to non-treated OM [13].

Data set [6] concerns E. coli. Put plainly: Inner membrane (IM) permeabilization (ONPG hydrolysis assay). The data set is classed as cell-based. The settings on record: 8 × MIC, 4 × MIC, 2 × MIC and 1 × MIC, 37 °C. The procedure:
We next used the o-nitrophenyl-β-d-galactopyranoside (ONPG) hydrolysis assay to test the ability of the lead compound YW-1 to permeabilize the inner membrane of Gram-negative bacteria (Figure 3B). If the lead compound YW-1 compromised the bacterial inner membrane, ONPG would interact with the cytoplasmic enzyme β-galactosidase to form o-nitrophenol, which can be measured under OD 420 nm.
Mid-log phase E. coli was obtained in Mueller Hinton Broth with 2% lactose at 37 °C; then, it was centrifuged at 3000× g rpm for 10 min at 4 °C and washed with 20 mM glucose and 1.5 mM ONPG in […] HEPES buffer one time. Next, the bacterial solution was diluted until OD600 = 0.1 using the same buffer. Following this, 50 μL of diluted bacterial solution was injected into a 96-well plate, and 50 μL of YW-1 in different concentrations and melittin were injected into the bacterial solution, respectively. The OD420 was read at 37 °C every 6 min until the […] reached the highest plateau.

Data set [7] concerns MRSA. Put plainly: Fluorescence microscopy (DAPI / PI staining). The data set is classed as cell-based, methicillin-resistant Staphylococcus aureus. The settings on record: 2 × MIC, 2 h at 37 °C, PI channel. The protocol: (§4) To further assess that the bacteria were killed with YW-1 by comprising the cell membrane, we conducted a fluorescence microscopy experiment. Two dyes, 4′,6-diamidino-2-phenylindole (DAPI) and propidium iodide (PI), were employed in this experiment. […] Instead, DAPI can be used to stain both dead and live cells because it is cell-permeable.
(§5) A total of 30 μL of mid-log phase bacterial solution was diluted to 3 mL in TSB medium with 2 × MIC of YW-1. The mixture was incubated for 2 h at 37 °C. Following this, the bacterial solution was centrifuged at 3000 rpm for 10 min. The top solution was thrown away, the bottom bacterial pellets were washed with PBS buffer, and PI (5 μg/mL) and DAPI (10 μg/mL) were added sequentially on ice under a dark environment. After dyeing with PI and DAPI, the bacterial cells were washed with PBS buffer. Immediately after 100 μL of PBS was added to suspend the bacterial cell, 10 μL of the suspended solution was dropped onto the slide, and data were obtained using a Zeiss Axiovert 200 inverted microscope.

Data set [8] deals with E. coli. Put plainly: Fluorescence microscopy (DAPI / PI staining). The conditions noted are these: 2 × MIC, 2 h at 37 °C, PI channel. It counts as cell-based. The procedure: as §4, §5
Data set [9] has as its system MRSA. Put plainly: Transmission electron microscopy (TEM). It counts as cell-based, methicillin-resistant Staphylococcus aureus. The settings on record: 2 × MIC, 2 h. The protocol: (§6) TEM microscopy offers convenient access to check the intactness of cell membranes. The cell membranes of MRSA and E. coli were intact.
(§7) An amount of 30 μL of mid-log phase MRSA and E. coli was diluted to 3 mL in TSB medium with 2 × MIC of YW-1, and the mixture was incubated for 2 h. The bacterial pellets were centrifuged at 3000× g rpm for 10 min. For the next step, PBS buffer was used to wash three times. Then, the suspended bacterial samples were dropped on grids and dried in a vacuum oven at 45 °C. TEM images were obtained using a FEI Morgagni 268D TEM, with an Olympus MegaView III CAMERA on the microscope, at 60 kV.

Data set [10] has as its system E. coli. The experiment in a line: Transmission electron microscopy (TEM). The conditions noted are these: 2 × MIC, 2 h. The data set is classed as cell-based. The protocol:
as §6, §7

Data set [11] has as its system MRSA. The experiment in a line: Time-kill kinetics study. The data set is classed as cell-based, methicillin-resistant Staphylococcus aureus. The conditions noted are these: 4 × MIC and 8 × MIC, TSB medium. The procedure:
(§8) To evaluate how rapidly bacteria could be eradicated, the lead compound YW-1 was examined for its ability to eradicate MRSA and E. coli by studying the time-kill kinetics.
(§9) Different concentrations of YW-1 and ciprofloxacin were mixed with 300 μL of mid-log phase bacterial solution in TSB medium. The mixture was incubated for 0, 10, and 30 min and 1 and 2 h, respectively. At the time, E. coli were diluted 100-fold, and the MRSA was diluted 100-fold. A total of 100 μL of each was transferred on TSB agar plates. After 16 h at 37 °C, CFUs were read using the Biotec multimode microplate reader.

For data set [12], the system named is E. coli. Put plainly: Time-kill kinetics study. It counts as cell-based. The conditions noted are these: 4 × MIC and 8 × MIC, TSB medium. The protocol:
as §8, §9

Data set [13] deals with MRSA. The experiment in a line: Drug resistance study (serial passages). It counts as cell-based, methicillin-resistant Staphylococcus aureus. The settings on record: after 14 generations. The procedure: Since the abuse of antibiotics, antibacterial drug resistance has become an increasingly serious threat. Thus, it is of great importance to assess the drug resistance of newly developed lead compounds.
The first generation of MIC data of YW-1 against MRSA and E. coli was already obtained in an MIC study. Then, the MRSA of the first generation in the well next to the last clear well was diluted to the mid-log phase, and MICs were tested at 37 °C. This step was repeated for 14 passages. The data of drug resistance for E. coli were obtained using the same method with bacterial E. coli.

Data set [14] concerns Human red blood cells. The settings on record: red cells of human, 1 h.
Method: (§10) Human red blood cells were washed with 1 × PBS buffer, then centrifuged at 700 g for 10 min. After discarding the top clear solution, the bottom cells were diluted to obtain 5% solution using 1 × PBS buffer.
(§11) Then, 50 μL of cell solution was injected into 96-well plates. Following this, 50 μL of synthesized compounds with different concentrations from 250 to 1.95 μg/mL were added into 96-well plates. Then, the mixture was incubated for 1 h at 37 °C. After centrifuging at 3500× g rpm for 10 min, 30 μL of the supernatant was transferred into a new 96-well plate with 100 μL of 1 × PBS buffer. With the same microplate reader, the data of absorbance at 540 nm were compared. Positive control: 2% Triton-100. Calculation formula: percentage of hemolysis = [(Absorbance of sample-Absorbance of PBS)/(Absorbance of Triton-Absorbance of PBS)] × 100
In data set [15] the test system is Human red blood cells. The experiment in a line: Hemolytic activity. The settings on record: HC50 over MIC against MRSA.
Method: as §10, §11

Molecules are shown by their SMILES.

Regarding `CCCCCCCCCCCCCCCC(=O)N[C@@H](CC(C)C)CN(CC(N)=O)C(=O)CCN(C[C@@H](N)CCCCN)C(=O)CCN` [YW-1], in the data set with MRSA (ATCC 33591), the “MIC, Gram-Positive (+), MRSA” value was 1.5 to 3 µg/mL. For the same compound, the “MIC, Gram-Negative (−), E. coli” value with E. coli (ATCC 25922) fell in the range of 3.0 to 6.0 µg/mL. Besides, the “MIC, Gram-Positive (+), E.F.” value with E.F. (VREF, ATCC 700802) is 1.5 to 3 µg/mL. Also, the “MIC, Gram-Negative (−), K.P.” value in data set [1] lay in the range of 12.5 to 25 µg/mL. Besides, in the data set with MRSE (RP62A), the “MIC, Gram-Positive (+), MRSE” value was in the range of 1.5 to 3 µg/mL. For the same compound, the “MIC, Gram-Negative (−), P.A.” value in data set [2] fell in the range of 6 to 12.5 µg/mL. Also, the “fluorescence intensity of diSC35 (membrane depolarization)” value in the data set with E. coli [3] (E. coli treated with different concentrations) and with MRSA [4] (MRSA treated with different concentrations) was “dose-dependent increases in fluorescence intensity” each time. For the same compound, the “fluorescence of diSC35 compared with positive control Triton” value in the data set on E. coli [3] (E. coli, at a two-fold of MIC or above) is recorded as “even more intensive fluorescence than the positive control Triton”; with MRSA [4] (MRSA, at a two-fold of MIC or above), “even more intensive fluorescence than the positive control Triton”. Further, in the data set on E. coli [5], the Outer membrane permeability is 98%. The “inner membrane permeabilization, OD 420 nm intensity” value in the data set on E. coli [6] is given as “enhanced to a great extent”. Further, the “PI staining (compromised membrane)” value in the data set on MRSA [7] and in the data set on E. coli [8] was “red fluorescence was observed under the PI channel” throughout. The “membrane intactness by TEM” value in the data set with MRSA [9] and with E. coli [10] was “the membranes clearly demonstrated damages” each time. For the same compound, the “time to remove bacteria thoroughly” value in the data set with MRSA [11] and with E. coli [12] was no more than 2 h in each case. The “increase in MIC (drug resistance)” value with MRSA [13] was “did not have an obvious change in MIC”. The compound also came in with an HC50 in the data set with Human red blood cells [14] greater than 125 µg/mL. Further, the “Selectivity Index (HC50/MICMRSA)” value with Human red blood cells [15] is greater than 41.7.

Usually HC50 stands for the concentration giving 50% haemolysis.
